According to US6407115B1, “Hexa-cyclic compound” (Daiichi Pharmaceutical Co., Ltd., priority 1991, dated 2002):

| SMILES | melting point |
| --- | --- |
| CC[C@@]1(O)C(=O)OCc2c1cc1n(c2=O)Cc2c-1nc1cccc3c1c2CC(S(=O)(=O)O)C3 (stereo partly shown) | 190 to 200 °C (dec.) |
| CC[C@@]1(O)C(=O)OCc2c1cc1n(c2=O)Cc2c-1nc1ccc(C)c3c1c2CCN3CCNC(C)=O | 155 to 165 °C (dec.) |
| CC[C@@]1(O)C(=O)OCc2c1cc1n(c2=O)Cc2c-1nc1cccc3c1c2C(NC(C)=O)CCC3 (stereo partly shown) | 203 to 206 °C (dec.) |

Other lines, results leading:

| melting point | SMILES |
| --- | --- |
| 225 to 235 °C | CC[C@@]1(O)C(=O)OCc2c1cc1n(c2=O)Cc2c-1nc1ccc(C)c3c1c2C(NC(C)=O)CN3 (stereo partly shown) |
| 210 to 230 °C (dec.) | CC[C@@]1(O)C(=O)OCc2c1cc1n(c2=O)Cc2c-1nc1ccc(C)c3c1c2CCN3CCN.Cl |
| 285 to 290 °C (dec.) | CC[C@@]1(O)C(=O)OCc2c1cc1n(c2=O)Cc2c-1nc1ccc(C)c3c1c2CCC3N1C(=O)c2ccccc2C1=O (stereo partly shown) |
| 250 to 270 °C | CC[C@@]1(O)C(=O)OCc2c1cc1n(c2=O)Cc2c-1nc1ccc(Cl)c3c1c2C(NC(C)=O)CN3 (stereo partly shown) |
